# Measured values: PMC5793121 (Toxins, 2018)
# “Also recorded” adds a separate entry of the source. Where two headings read alike, the source gives them in different places. No end group written: not given here.
# Key:
# [1] = tested on: human neuronal heteromeric α3-containing nAChRs (α3β2, α3β4, etc.); format: cell-based
# [2] = for AUC(0 → t) / Cmax / T1/2: single, [125I]-Az, blood radioactivity, 5 animals per time point
# Description: The pharmacokinetic study was performed using 163 male ICR mice. Four experimental groups with 40 animals in each were formed. Three intact mice were used as control animals. The animals of the first two experimental groups were intravenously injected with 0.25 and 0.50 mg/kg [^125I]-Az, respectively. The animals of the other two experimental groups were intramuscularly injected with 0.25 and 0.50 mg/kg [^125I]-Az, respectively. To estimate Az elimination rate, animal blood samples were taken from the orbital sinus 5, 15, 30, 60 min and 1, 2, 4 and 24 h after [^125I]-Az administration. The obtained blood samples were weighed. For each indicated time point, [^125I]-Az concentration was calculated as a mean value in blood samples of five animals. The radioactivity (cpm) in the blood samples was counted using a Wallac 1470 WIZARD® Gamma Counter (Perkin Elmer, Waltham, MA, USA). […] Radioactivity data (cpm) were re-calculated to the concentration of [^125I]-Az in the obtained blood samples. The specific pharmacokinetic parameters (AUC (0 → t), Cmax, T1/2) of [^125I]-Az were estimated.
# Sprague Dawley rats = format: in vivo, rat; design: number of platelets / increase of platelet count from control: unit not given here
# Description: A repeated dose 14-day intramuscular toxicity study was conducted on 36 SD male and 36 SD female adult rats. They were divided into 3 groups. The first control group was given normal saline, the second and the third experimental groups received Az at doses of 0.1 mg/kg and 0.5 mg/kg, respectively, daily for 14 days. The substances were injected into the quadriceps muscle of the thigh. Every day the animals were examined and any clinical signs of intoxication, body weight and food intake were recorded. The one half of the animals were euthanized on the 15th day of the study, the second half—after a 2-week cancellation period on the 29th day of the study. All animals were autopsied and their organs were inspected for any pathological signs, weighed and histologically examined. The ratio of organ-to-body weight was calculated for several organs: brain, heart, liver, spleen, thymus, kidneys, lungs, testicles and ovaries. The histological analysis was carried out for a number of organs: kidney, adrenal glands, testis, ovary, spleen, thymus, brain, heart, lung, liver, lymph node (mesenteric and mandibular), stomach, skin and muscle from the site of the administration.
# A biochemical analysis of blood serum parameters was performed. A level of aspartate aminotransferase, alanine aminotransferase, glutamate dehydrogenase, alkaline phosphatase, gamma-glutamyl transferase, urea nitrogen, creatinine, total bilirubin, total protein, albumin, globulin, phosphorus, calcium, total cholesterol, triglycerides, albumin/globulin ratio was estimated. The analysis was performed using Randox GB reagent kits for each tested parameter and the automatic biochemical analyzer Sapphire-400 (Tokyo Boeki Ltd., Toyko, Japan).
# A hematological analysis of animal blood included the evaluation of red and white blood cell number, a hemoglobin level, hematocrit, red cell distribution width, mean corpuscular volume (MCV), mean corpuscular hemoglobin (MCH), mean corpuscular hemoglobin concentration (MCHC), platelets number, a mean platelet volume, a mean platelet component and a cell number of neutrophils, eosinophils, basophils, lymphocytes, monocytes, large unstained cells, reticulocytes. The analysis was performed using a hematological analyzer Mythic 18 Vet (C2 D[…].A., Montpellier, France).
# [3] = target: muscle-type Torpedo nicotinic acetylcholine receptor (nAChR); conditions: cited from earlier work
# [4] = tested on: GABAA (α1β3γ2 or α2β3γ2) receptors; conditions: concentration up to 100 μM; cited from earlier work
substance,measurement,setting,value
"DNWWPKPPHQGPRPPRPRPKP-NH2 [Az, azemiopsin]",activity against α3-containing nAChRs (nicotine-evoked calcium responses),[1],no Az activity; also recorded: no effect
same,excretion half-life,"[2]; depending on administration way (iv or im), mice",15 to 40 min
same,AUC(0 → t),"[2]; im 0.25 mg/kg, male ICR mice",328 ng·h/mL
same,Cmax,"[2]; im 0.25 mg/kg, male ICR mice",278 ng/mL
same,T1/2,"[2]; im 0.25 mg/kg, male ICR mice",18 min
same,AUC(0 → t),"[2]; im 0.50 mg/kg, male ICR mice",622 ng·h/mL
same,Cmax,"[2]; im 0.50 mg/kg, male ICR mice",257 ng/mL
same,T1/2,"[2]; im 0.50 mg/kg, male ICR mice",40.8 min
same,half-life T1/2,"[2]; intramuscular administration, 0.25 and 0.5 mg/kg, male ICR mice",20 to 40 min
same,AUC(0 → t),"[2]; iv 0.25 mg/kg, male ICR mice",214 ng·h/mL
same,Cmax,"[2]; iv 0.25 mg/kg, male ICR mice",517 ng/mL
same,T1/2,"[2]; iv 0.25 mg/kg, male ICR mice",15.6 min
same,AUC(0 → t),"[2]; iv 0.50 mg/kg, male ICR mice",542 ng·h/mL
same,Cmax,"[2]; iv 0.50 mg/kg, male ICR mice",745 ng/mL
same,T1/2,"[2]; iv 0.50 mg/kg, male ICR mice",17.4 min
same,changes in the hemogram relative to control,Sprague Dawley rats; 0.1 mg/kg im 14 days,did not lead to any changes
same,increase in mean body weight and food intake vs control,Sprague Dawley rats; 0.1 and 0.5 mg/kg im 14 days,did not differ significantly
same,histological analysis of organs and tissues,"Sprague Dawley rats; 0.1 and 0.5 mg/kg im 14 days, rats",No pathological changes
same,lowering of cholesterol level from control,"Sprague Dawley rats; female rats, 0.1 mg/kg",0.73 mmol/L
same,level of calcium in blood serum,"Sprague Dawley rats; female rats, 0.1 mg/kg, end of 28-day experiment, n = 6, control 3.25 ± 0.09",3090 ± 60 µM
same,level of cholesterol in blood serum,"Sprague Dawley rats; female rats, 0.1 mg/kg, end of 28-day experiment, n = 6, control 3.55 ± 0.39",2820 ± 360 µM
same,decrease of triglyceride level from control,Sprague Dawley rats; male rats receiving Az,0.28 mmol/L
same,difference of relative heart mass from control,Sprague Dawley rats; male rats receiving Az,0.076%
same,increase of platelet count from control,Sprague Dawley rats; male rats receiving Az,81
same,number of platelets,"Sprague Dawley rats; male rats, 0.5 mg/kg im 14 days, n = 6, control 729 ± 22",810 ± 39
same,mean level of triglycerides in blood serum,"Sprague Dawley rats; male rats, 0.5 mg/kg, end of 28-day experiment, n = 6, control 1.25",970 µM
same,mean relative heart weight,"Sprague Dawley rats; male rats, 0.5 mg/kg, two weeks after administration, n = 6, control 0.428 ± 0.086",0.352 ± 0.033%
same,IC50,[3],180 ± 30 nM
same,activity against GABAA receptors,[4],no activity
